We go through three compounds from article PMC8998611, “Identification of Novel GSK-3β Hits Using Competitive Biophysical Assays” (International Journal of Molecular Sciences, 2022).

Test [1] has as its target T1, GSK-3β (Homo sapiens, UniProt P49841). Nature of the test: LANCE Ultra TR-FRET GSK-3β kinase inhibition assay (ULight-GS phosphorylation). The class given is biochemical. To be noted: 1 µM ATP, 50 nM ULight-GS; for IC50: dose-response 30 nM to 200 μM. How it is done:
To assess if the identified GSK-3β binders were also able to affect kinase activity, the inhibitory activity of the four identified hit compounds was tested at four concentrations (1-5-50-100 μM) using the LANCE® Ultra (Perkin Elmer, Waltham, MA, USA) time-resolved fluorescence resonance energy transfer (TR-FRET) assay. The assay measures the ability of GSK-3β to phosphorylate a specific substrate, human Muscle Glycogen Synthase (ULight-GS ([…]/pSer657)), in the presence and absence of the identified ligands. […] Specifically, IC50 values were (14.81 ± 0.55) μM and (15.25 ± 1.34) μ[…] and G12, respectively (Figure 5). The GSK-3β kinase assay was run in 384 well microplates (OptiPlate^TM-384, White, Perkin Elmer) with a total reaction volume of 20 μL. The inhibitory potency against human recombinant GSK-3β was evaluated using the LANCE® Ultra (Perkin Elmer) time-resolved fluorescence resonance energy transfer (TR-FRET) by measuring the phosphorylation of the specific substrate, human Muscle Glycogen Synthase (ULight-GS ([…]/pSer657)), according to the manufacturer's instructions. […] The reaction was initiated by adding 50 nM of the substrate ULight-[…] and 1 μM ATP. The mixture was incubated for 1 h at 23 °C. Afterward, the reaction was stopped by adding 8 mM EDTA. After 5 min, the anti-phospho-GS antibody labeled with europium chelate was added. 1 h later, the kinase reaction was monitored by irradiation at 320 nm, and the fluorescence was measured at 615 and 665 nm, using EnVision 2014 Multilabel Reader (PerkinElmer). The calculated signal ratio at 665/615 nm was proportional to the extent of ULight-GS phosphorylation. The compounds were screened at four concentrations (1-5-50-100 μM). For selected compounds, dose-response curves, ranging from 30 nM up to 200 μM, were performed. Dose-response curves were run in three independent experiments, each performed in three technical replicates. IC50 values (concentrations causing half-maximal response or enzyme inhibition) were determined by non-linear regression analysis of the Log [concentration]/response curves generated with mean replicate values using a four parameter Hill equation curve fitting with GraphPad Prism 8 (GraphPad Software Inc., San Diego, CA, USA).
(Time-resolved FRET reads energy transfer from a long-lived donor to a nearby acceptor.)

Test [2] has as its target T1, GSK-3β. Nature of the test: MicroScale Thermophoresis (MST) binding to fluorescently labeled GSK-3β. To be noted: preincubation with 3 mM AMP-PNP; data not shown. Details: made in house; host or cells: Sf9 cells. Here is the method: MicroScale Thermophoresis (MST) experiments were conducted in triplicate on a Monolith NT.115 Pico system (NanoTemper Technologies, Munich, Germany).
The MST technique was used both for hit binding and for affinity (kd) determination.
GSK-3β was labeled with the His-tag RED-tris-NTA label 2nd generation (Nanotemper Technologies) following Nanotemper technology protocol. The 100 nM stock labeled protein solution was used at 20 nM concentration to roughly start from 7000 fluorescence counts in each screening experiment.
GSK-3β was labelled also using RED-NHS ammine dye (Nanotemper Technologies) following the manufacturer’s protocol. The obtained ammine-labeled protein was used at 20 nM concentration to roughly start the experiments from 6000 fluorescence counts.
Binding tests were performed on eight capillaries with a constant concentration of the labeled protein (20 nM), to detect the effect induced by the compounds on the fluorescence signal (in the presence or absence of 3 mM AMP-PNP). Protein in assay buffer in the presence of 5% DMSO was the negative control.
Assay buffer: Phosphate buffer 0.1 M pH 7.2, 5 mM MgCl2, 0.001% Tween80, 0.1% PEG8000. Experiments were performed in triplicates. Data elaboration and plots were performed using MO.Control Nanotemper software.
(In general: In MST a laser heats a spot of the sample, and binding alters the fluorescence response.)

One may read the IC50 as the concentration at which inhibition is half-maximal. High values mean lower potency, low ones higher potency. The term inhibition denotes how much of the control response was suppressed. A lower inhibition goes with a response near the control.

T1 sequence (P49841 whole entry): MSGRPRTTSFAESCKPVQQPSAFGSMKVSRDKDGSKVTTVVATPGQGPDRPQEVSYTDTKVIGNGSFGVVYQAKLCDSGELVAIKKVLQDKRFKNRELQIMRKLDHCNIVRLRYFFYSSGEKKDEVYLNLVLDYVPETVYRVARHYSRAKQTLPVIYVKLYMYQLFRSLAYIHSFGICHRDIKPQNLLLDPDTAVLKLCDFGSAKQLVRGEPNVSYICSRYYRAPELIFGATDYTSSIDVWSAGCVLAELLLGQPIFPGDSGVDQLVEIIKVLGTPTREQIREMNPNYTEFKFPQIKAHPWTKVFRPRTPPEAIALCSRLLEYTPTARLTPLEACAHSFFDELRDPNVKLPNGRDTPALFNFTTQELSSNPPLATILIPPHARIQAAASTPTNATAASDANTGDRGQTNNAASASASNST

In test [1], `O=C(Nc1ccccn1)C1CCN(C(=O)COc2ccccc2F)C1` (stereo not shown) [ARN1484] showed a half-maximal inhibitory concentration (IC50) of 38.1 µM.
`CN(C)S(=O)(=O)N1CC(c2nc(N)ncc2-c2ccc(F)cc2)C1` [ARN9133] had a half-maximal inhibitory concentration (IC50) in test [1] of 27.2 µM.
Consider `O=C(NCCn1ncc(-c2ccncc2)c1C1CC1)c1ccccc1F` [B3], for which the “MST binding check, displacement assay” value in test [2] is “maintained their ability to bind GSK-3β”. The same compound returned an inhibition at 1 µM in test [1] (1 μM compound, mean ± SD) of 2.5 ± 0.9%. The inhibition at 5 µM in test [1] (5 μM compound, mean ± SD) is 4.9 ± 1.5%. The compound also came in with an inhibition at 50 µM in test [1] (50 μM compound, mean ± SD) of 27.1 ± 4.9%. This compound also returned an inhibition at 100 µM in test [1] (100 μM compound, mean ± SD) of 46.6 ± 6%.
